Patent US8324280B2, “Treatment of prostate cancer with DDC inhibitor” (The University of British Columbia, priority 2008, dated 2012)

Assays:
[1] = system: LNCaP cells; experiment: cAMP assay in LNCaP cells; type: cell-based, human; settings: all concentrations; DA 15 minutes, 5-HT 10 minutes
Protocol: (§1) PC3 and LNCaP cells were seeded in 12-well plates at a density of 1.5×10^5 cells/well. The next day, cells were gently washed three times with serum-free media to remove excess FBS and grown for a further 24 hours in the absence of serum. Cells were then stimulated with various concentrations of DA for 15 minutes or 5-HT for 10 minutes at 37° C. Cells were lysed and intracellular cAMP levels were determined using the cAMP Biotrak Enzymeimmunoassay System (Amersham Biosciences) following the manufacturer's instructions. Assays were performed in triplicate with two independent trials.

[2] = system: AR; experiment: AR transactivation assay (pARR3-tk-Luc) in AR transfected PC3 cells; type: cell-based, human
Source text: (§2) PC3 and LNCaP cells were transfected, treated with R1881 and used for luciferase assays, as described previously. Briefly, human AR expression plasmid (pcDNA3.1-hAR) and AR-regulated luciferase reporters, pARR3-tk-Luc or pPSA-630 bp-Luc (−630/+12 bp of the 5′ PSA flanking region) {Snoek, 1998 #136}, were cotransfected into cells, along with DDC expression plasmid (pDEST12.2-DDC) or control empty vector (pDEST12.2). Firefly luciferase values were normalized to renilla luciferase (PRL-TK reporter; Promega Corp.) and expressed as relative luciferase units (RLU).
Transactivation assays for AR were also performed in PC3 cells treated with dopamine (DA) and serotonin (5-HT, 5-hyroxytyrptamine), which were purchased from Sigma. As described above, cells were transfected with pcDNA3.1-hAR, pRL-TK-renilla and pARR3-tk-Luc reporter but DDC was excluded. Cells were then treated with or without 1 nM R1881 and varying concentrations of pure DA or 5-HT in 5% dextran-coated charcoal stripped FBS (DCC-FBS) for 24 hours before harvest and luciferase assay.

[3] = system: PC3 cells; experiment: cAMP assay in PC3 cells; type: cell-based
Protocol: as §1

[4] = system: C4-2 cells; experiment: MTS cell proliferation assay, androgen-independent C4-2 cells; type: cell-based, human; settings: 10 μM, 6 days
Protocol: Cell proliferation assays were performed using the 3-(4,5-dimethylhiazol-2-yl)-5-(3-carboxymethoxyphenyl)-2-(4-sulfophenyl)-2H-tetrazolium Assay (MTS) according to the manufacturer's protocol, with minor modifications (Promega). C4-2 cells were plated in 96-well plates at a density of 750 cells per well in RPMI medium containing 5% CSS for 1 day. On the following day, the DDC inhibitors, carbidopa (25 μM) and NSD-1015 (10 μM)±0.1 nM R1881 were added to each well in charcoal-stripped serum (CSS; Hyclone, VWR) RPMI media. The cells were harvested at days 0, 2, 4, and 6, with a medium change every 3 days. Each time point was measured with 6 replicates.
(§3) Student's t-test (two-sample equal variance) was used to evaluate statistically significant differences. All calculated p-values were two-sided and those less than 0.05 were considered statistically significant.

[5] = system: LNCaP cells; experiment: MTS cell proliferation assay, androgen-dependent LNCaP cells; type: cell-based, human; settings: 10 μM, 8 days
Protocol: Cell proliferation assays were performed using the 3-(4,5-dimethylhiazol-2-yl)-5-(3-carboxymethoxyphenyl)-2-(4-sulfophenyl)-2H-tetrazolium Assay (MTS) according to the manufacturer's protocol, with minor modifications (Promega). LNCaP cells were plated in 96-well plates at a density of 3000 cells per well and incubated in RPMI medium containing 5% CSS for one day. On the following day, the DDC inhibitors, carbidopa (25 and 50 μM) and NSD-1015 (10 μM)±0.1 nM R1881 were added to each well in charcoal-stripped serum (CSS; Hyclone, VWR) RPMI media. The cells were harvested at days 0, 2, 4, 6 and 8, with a medium change every 3 days. Each time point was measured with 6 replicates.
as §3

[6] = molecular target: T1, DDC (Homo sapiens, UniProt P20711); experiment: Dopamine ELISA on conditioned medium of PC3 cells overexpressing DDC; type: cell-based; settings: 1 μM NSD-1015, 24 hours, 1 nM R1881
T1 construct: expressed in transfected cells; host or cells: PC3 cells, co-transfected with pcDNA3.1-AR
T1 sequence (P20711 1-480): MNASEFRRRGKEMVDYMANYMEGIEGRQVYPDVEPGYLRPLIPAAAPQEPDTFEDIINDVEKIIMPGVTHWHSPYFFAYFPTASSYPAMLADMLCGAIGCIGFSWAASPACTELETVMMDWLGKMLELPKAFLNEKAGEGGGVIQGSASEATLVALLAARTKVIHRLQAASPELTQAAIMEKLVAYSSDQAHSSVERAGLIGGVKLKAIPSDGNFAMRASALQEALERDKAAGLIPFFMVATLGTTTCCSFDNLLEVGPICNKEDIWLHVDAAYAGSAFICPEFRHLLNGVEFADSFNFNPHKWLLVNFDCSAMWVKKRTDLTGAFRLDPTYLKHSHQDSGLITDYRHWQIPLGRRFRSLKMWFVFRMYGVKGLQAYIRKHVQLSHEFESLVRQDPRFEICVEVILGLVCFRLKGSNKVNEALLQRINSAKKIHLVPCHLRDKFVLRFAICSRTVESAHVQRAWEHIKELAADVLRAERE
Protocol: (§4) PC3 cells were seeded in 12-well plates at a density of 1.5×10^5 cells/well and transfected the following day with pcDNA3.1-AR and pDEST12.2-DDC or pDEST12.2 empty vector control, as described above for transactivation assays. The next day, media was changed to 5% DCC-FBS containing 1 nM R1881. Conditioned culture media was removed 24 hours later and stored at −80° C. A 100 μL volume of media was used for the competitive enzyme-linked immunosorbent assay (ELISA). Dopamine was assayed using the Dopamine Research Enzyme Immunoassay kit (Rocky Mountain Diagnostics) following the manufacturer's instructions. PC12 cells, used as a positive control, were grown to 70% confluency (12-well plates) and conditioned media was collected 24 hours later for assay, as above. Secreted DA levels from PC3 and PC12 cells were determined in the presence and absence of 1 μM NSD-1015 (3-hydroxybenzylhydrazine) DDC enzymatic inhibitor (Sigma). All ELISAs were performed in triplicate with two independent trials.

[7] = molecular target: T2, DDC (Rattus norvegicus, UniProt P14173); experiment: Dopamine ELISA on conditioned medium of PC12 cells; type: cell-based; settings: 1 μM NSD-1015, 24 hours
T2 construct: PC12 cells were not transfected or treated with R1881 but were incubated 24 hours with or without NSD-1015; endogenous in cells; host or cells: PC12 rat adrenal pheochromocytoma cells
T2 sequence (P14173 1-480): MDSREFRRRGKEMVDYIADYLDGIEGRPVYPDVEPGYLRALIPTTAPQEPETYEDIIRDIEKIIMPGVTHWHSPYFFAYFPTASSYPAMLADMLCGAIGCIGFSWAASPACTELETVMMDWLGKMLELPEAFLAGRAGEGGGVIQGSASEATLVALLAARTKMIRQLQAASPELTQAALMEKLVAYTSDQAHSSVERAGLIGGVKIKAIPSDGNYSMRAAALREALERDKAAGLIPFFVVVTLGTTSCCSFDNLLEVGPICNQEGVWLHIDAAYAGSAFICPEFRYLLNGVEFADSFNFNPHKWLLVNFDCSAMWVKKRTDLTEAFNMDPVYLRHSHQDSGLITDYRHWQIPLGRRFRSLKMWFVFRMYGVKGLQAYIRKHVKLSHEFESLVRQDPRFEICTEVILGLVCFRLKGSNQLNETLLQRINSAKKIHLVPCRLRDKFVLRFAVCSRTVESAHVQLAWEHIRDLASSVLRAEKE
Protocol: as §4

[8] = system: AR; experiment: Cell-based ligand binding assay in HeLa-AR cells (cytosol); design: species or system human
Protocol: HeLa-AR cells were cultured for 24-48 hours in DMEM containing 5% DCC-FBS and seeded onto 6 cm plates at a density of 1×10^6 cells/plate. After 5 hours, cells were transfected with either pDEST12.2-DDC or pDEST12.2 control vector (5 μg/plate) using Lipofectin Reagent (Invitrogen). The next day, transfection mix was changed to DMEM supplemented with 5% DCC-FBS containing increasing concentrations of [^3H]-R1881 (0-10 nM). To determine non-specific binding, hormone treatments were carried out in the presence (NSB) and absence (total binding) of excess cold 1000 nM R1881. After 24 hours of incubation with hormone, cells were harvested as described previously. […]
Cytosolic and nuclear extracts were then thawed and incubated for 6 hours with agarose beads conjugated to FLAG monoclonal antibody (Sigma, USA). […] Beads were washed with Buffer D (20 mM HEPES pH 7.9, 20% glycerol, 0.3 M KCl, 0.2 mM EDTA, 0.05% NP-40, 0.5 mM DTT, 0.5 mM PMSF) and specifically bound ligand (total binding—NSB) to the immunopreciptated FLAG-tagged AR protein was determined by measuring the levels of tritium (dpm) in bead resuspensions using a scintillation counter. All measured bound dpm values were normalized to corresponding Western blot AR protein band intensities. Results were expressed as the relative (normalized to the level of AR protein) mean bound ligand of three replicates (±SEM).

[9] = system: AR; experiment: AR transactivation assay (pARR3-tk-Luc) in LNCaP cells; type: cell-based, human; settings: endogenous AR, 24 hours
Source text: as §2

[10] = molecular target: T3, AR ligand binding domain (Rattus norvegicus, UniProt P15207); experiment: In vitro hydroxylapatite pulldown ligand binding assay
T3 construct: purchased PanVera
T3 sequence (P15207 651-882 limits assumed): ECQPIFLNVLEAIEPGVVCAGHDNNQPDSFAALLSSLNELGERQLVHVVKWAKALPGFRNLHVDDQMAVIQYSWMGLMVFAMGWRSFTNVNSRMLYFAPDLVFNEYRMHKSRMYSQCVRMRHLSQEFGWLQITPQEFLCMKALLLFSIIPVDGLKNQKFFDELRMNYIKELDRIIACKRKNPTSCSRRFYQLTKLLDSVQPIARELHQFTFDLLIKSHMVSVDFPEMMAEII
Protocol: Recombinant rat thioredoxin-fused AR ligand binding domain (PanVera, 1.390 mg/mL, 48.4 kDa), which is identical to the human AR-LBD, was used for hydroxylapatite (HAP) pulldown ligand binding assays at R1881 concentrations of 0 to 1000 nM {Portigal, 2002 #86}. Initially, his-tagged-DDC protein was expressed in BL21-SI bacteria, containing the pDEST17-His-DDC plasmid, and purified using a nickel-nitrilotriacetic acid (Ni-NTA)-agarose column according to the manufacturer's protocol (Qiagen). Purified AR-LBD was diluted to a final concentration of 1 μg/mL in binding buffer (50 mM Tris pH 7.5, 10% glycerol, 0.8 M NaCl, 1 mg/mL BSA and 2 mM dithiothreitol), containing tracer 20 nM [^3H]-R1881 (NEN Life Science Products, 75.2 Ci/mmol, 1 mCi/mL). In order to minimize the use of radioactive ligand, supplemental cold R1881 was added to the assay mix to achieve the high 100 nM and 1000 nM total R1881 concentrations. Assays were carried out in the absence and presence of 0.5 μg of His-DDC protein, which was added directly to the 1 mL assay mix. Following overnight incubation at 4° C., a 50% HAP slurry (Calbiochem Fast Flow hydroxylapatite in […] pH 8.0 and 1 mM EDTA) was added to the assay, pellets were incubated on ice for 10 minutes, and then washed four times with wash buffer (40 mM Tris pH 7.5, 100 mM KCl, 1 mM EDTA and 1 mM EGTA). HAP pellets were resuspended in ethanol and bound [^3H]-R1881 was measured (disintegrations per minute, dpm) using a Beckman LS 6500 scintillation counter.
To determine non-specific binding (NSB) to the HAP matrix, control pulldown assays were carried out using an assay mix that lacked AR-LBD. […] NSB values were subtracted from sample measurements for determination of specific binding. The total dpm per assay was determined by measuring a known amount of [^3H]-R1881 and normalizing to the total assay volume (1 mL). All assays were carried out in triplicate and the pmole bound [^3H]-R1881/mg AR-LBD protein was calculated by using the measured dpm of tracer 20 nM [^3H]-R1881. Calculated values were then extrapolated to determine total ligand bound at the 10 nM, 100 nM and 1000 nM R1881 concentrations. Results were expressed as the mean total pmole bound R1881/mg AR-LBD protein (±SEM).

[11] = presence of hormone (0.1 nM R1881)

SMILES: NCCc1c[nH]c2ccc(O)cc12 [5-HT, 5-hyroxytyrptamine]
- intracellular cAMP response [1]: did not increase cAMP levels
- AR activity in the absence or presence of ligand ([2]; 0-100 nM, with or without 1 nM R1881, 24 hours): did not alter AR activity
- intracellular cAMP response ([3]; 5-HT 10 minutes): did not increase cAMP levels

SMILES: NCCc1ccc(O)c(O)c1 [DA, dopamine]
- intracellular cAMP response [1]: did not induce a significant cAMP response
- repression of ligand-dependent AR transcription ([2]; highest 200 μM concentration, 1 nM R1881, 24 hours): 2.2 fold
- ligand-independent activation of AR ([2]; without R1881, 24 hours): not affected
- increase in intracellular cAMP versus untreated cells ([3]; maximum 200 μM concentration, 15 minutes): ~52 fold

SMILES: NNCc1cccc(O)c1 [NSD-1015, 3-hydroxybenzylhydrazine]
- decrease in cell growth ([4]; absence of hormone): 1.20 fold
- decline in cell growth [4, 11]: 1.24 fold
- decrease in cell growth ([5]; absence of hormone): 1.43 fold
- decline in cell growth [5, 11]: 1.15 fold
- secreted DA level [6]: 220±85 pg/mL CM
- reduction of DA levels [7]: 2.6 fold
- secreted DA level [7]: 3561±2032 pg/mL CM

SMILES: C[C@]1(O)CC[C@H]2[C@@H]3CCC4=CC(=O)CCC4=C3C=C[C@@]21C [R1881]
- amount of R1881 required to reach the control Bmax ([8]; presence of DDC (overexpression)): 0.56 nM
- R1881 concentration at which control Bmax occurred ([8]; vector control): 1 nM
- minimum concentration required for activation of AR transcription [9]: 0.1 nM
- minimum concentration required for activation of AR transcription ([2]; PC3 cells transfected with AR, 24 hours): 0.1 nM
- available ligand bound to AR-LBD (ligand-binding efficiency) ([10]; 20 nM [3H]-R1881, absence and presence of His-DDC): about 5%
- ligand-binding efficiency ([10]; 100 nM R1881, absence of DDC): 14%
- total available ligand bound to AR-LBD ([10]; 100 nM R1881, with His-DDC): 24.5%
- ligand-binding efficiency ([10]; 1000 nM R1881, absence of DDC): 54%
- total available ligand bound to AR-LBD ([10]; 1000 nM R1881, with His-DDC): 92%
- R1881 concentration required to 50% saturate total AR-LBD protein ([10]; absence of His-DDC): 883 nM
- R1881 concentration required to 50% saturate total AR-LBD protein ([10]; presence of His-DDC (0.5 μg/assay)): 425 nM
- bound R1881 ([10]; tracer 20 nM [3H]-R1881, AR-LBD control): 895±93 pmole bound R1881/mg AR-LBD
- bound R1881 ([10]; tracer 20 nM [3H]-R1881, AR-LBD+His-DDC): 937±111 pmole bound R1881/mg AR-LBD
